Results: US20240067634A1, “INHIBITORS OF NEF DOWNMODULATION” (priority 2020, published 2024)

Test system: V-ATPase-dependent lysosomal acidification
Assay: cells
Type: cell-based, human
Conditions: 24 hr Lysotracker IC50; 1000 nM set as activity threshold (FIG. 11-14); read-out: Lyso IC50
Description: Determine effect on V-ATPase activity: Plecomacrolides are known inhibitors of V-ATPase that neutralize normally acidified lysosomes. […] Thus, analogs of the disclosure are further characterized by measuring their effects on lysosome acidification.
LysoTracker® is a fluorophore linked to a weak base that is partially protonated at neutral pH. This form of the probe is capable of freely permeating cell membranes of live cells. In acidic compartments, protonation creates a form that was impermeable causing the probe to accumulate inside the lysosome.

Question: For `C#CCCC(=O)O[C@H]1C[C@@H](O[C@@H]2C[C@](O)([C@@H](C)[C@H](O)[C@H](C)[C@H]3OC(=O)/C(OC)=C/C(C)=C/[C@@H](C)[C@@H](O)[C@@H](CC)[C@@H](O)[C@H](C)C/C(C)=C/C=C/[C@@H]3OC)O[C@H](/C=C/C)[C@H]2C)O[C@@H](C)[C@@H]1OC(N)=O` [23-Alkyne CMA, 3′-pent-4-ynoate Concanamycins A-C], which IC50 is on record?
Answer: 1.1 nM

Question: With 19-Deoxy-20-ene Baf A1 as the molecule, how does the IC50 read?
Answer: 341 nM

Question: `C/C=C/[C@H]1O[C@@](O)([C@@H](C)[C@H](O)[C@H](C)[C@H]2OC(=O)/C(OC)=C/C(C)=C/[C@@H](C)[C@@H](O)[C@@H](CC)[C@@H](O)[C@H](C)C/C(C)=C/C=C/[C@@H]2OC)C[C@@H](O[C@H]2C[C@@H](O)[C@H](O)[C@@H](C)O2)[C@@H]1C` [CMC, Concanamycin C, reference compound] was tested. Which IC50 did it give?
Answer: 2.72 nM

Question: With `C/C=C/[C@H]1O[C@@](O)([C@@H](C)[C@H](O)[C@H](C)[C@H]2OC(=O)/C(OC)=C/C(C)=C/[C@@H](C)[C@@H](O)[C@@H](C)[C@@H](O)[C@H](C)C/C(C)=C/C=C/[C@@H]2OC)C[C@@H](O[C@H]2C[C@@H](O)[C@H](OC(N)=O)[C@@H](C)O2)[C@@H]1C` [CMB, Concanamycin B, reference compound] as the molecule, how does the IC50 read?
Answer: 29.6 nM

Question: How did the IC50 turn out when `CC=CC=CC1OC(O)(C(C)C(O)C(C)C2OC(=O)C(OC)=CC(C)=CC(C)C(O)C(C)CC(C)=CC=CC2OC)CC(OC2CC(O)C(O)C(C)O2)C1C` (centres unmarked) [PC-766B, reference compound] was run?
Answer: 2.72 nM

Question: How did the IC50 turn out when 19-Deoxy-21-allylester Baf A1 was run?
Answer: 152 nM

Question: Which IC50 does the source give for 19-Deoxy-21-Methoxy Baf A1 here?
Answer: 49.6 nM

Question: For `CO/C1=C\C(C)=C\C(C)C(O)C(C)C/C(C)=C/C=C/C(OC)C(C(C)C(O)C(C)C2(O)CC(O[C@@H]3O[C@@H](C)[C@H](O)[C@@H](O)[C@H]3OC)C(C)C(C(C)C)O2)OC1=O` (some centres unmarked) [Leucanicidin, reference compound], which IC50 is on record?
Answer: 2.04 nM

Same assay, conditions: Homo sapiens, PBMC, 24 h, 24 hr Lysotracker IC50; 1000 nM set as activity threshold (FIG. 11-14); read-out: Lyso IC50

Question: Which IC50 does the source give for `C/C=C/CC(=O)O[C@@H]1C[C@](O)([C@@H](C)[C@H](O)[C@H](C)[C@H]2OC(=O)/C(OC)=C/C(C)=C/[C@@H](C)[C@@H](O)[C@@H](C)C/C(C)=C/C=C/[C@@H]2OC)O[C@H](C(C)C)[C@H]1C` [21-Penta-3-enoate Baf A1, 21-pent-3-enoate Bafilomycin] here?
Answer: 60.2 nM

Question: `C/C=C/[C@H]1O[C@@H]([C@@H](C)[C@H](O)[C@H](C)[C@H]2OC(=O)/C(O)=C/C(C)=C/[C@@H](C)[C@@H](O)[C@@H](CC)[C@@H](O)[C@H](C)C/C(C)=C/C=C/[C@@H]2OC)C[C@@H](O)[C@@H]1C` [2-hydroxy-21-deoxy CMF, 21-deoxy-2-hydroxy-Concanamycin F] was tested. Which IC50 did it give?
Answer: ≥ 1000 nM

Question: How did the IC50 turn out when `C#CCCC(=O)O[C@@H]1[C@H](C)/C=C(C)/C=C(\OC)C(=O)O[C@H]([C@@H](C)[C@@H](O)[C@H](C)[C@@]2(O)C[C@@H](OC(=O)c3ccc(C4(C(F)(F)F)N=N4)cc3)[C@H](C)[C@@H](C(C)C)O2)[C@@H](OC)/C=C/C=C(\C)C[C@@H]1C` [7 Alkyne 21-Y Bafilomycin Probe, 21-(3-(trifluoromethyl)-3H-diazirin-3-yl)benzoate-7-pent-4-ynoate-Bafilomycin] was run?
Answer: ≥ 1000 nM

Question: Which IC50 does the source give for `CO/C1=C\C(C)=C\[C@@H](C)[C@@H](O)[C@@H](C)C/C(C)=C/C=C/[C@H](OC)[C@@H]([C@@H](C)[C@@H](O)[C@H](C)[C@H]2C[C@@H](OC(=O)c3ccc(C4(C(F)(F)F)N=N4)cc3)[C@H](C)[C@@H](C(C)C)O2)OC1=O` [21-Y Bafilomycin Probe, 21-(3-(trifluoromethyl)-3H-diazirin-3-yl)benzoate Bafilomycin] here?
Answer: ≥ 1000 nM

Question: With `C#CCCC1(CCC(=O)O[C@@H]2C[C@](O)([C@@H](C)[C@H](O)[C@H](C)[C@H]3OC(=O)/C(OC)=C/C(C)=C/[C@@H](C)[C@@H](O)[C@@H](C)C/C(C)=C/C=C/[C@@H]3OC)O[C@H](C(C)C)[C@H]2C)N=N1` [21 Dual Linear Bafilomycin Probe, 21-(3-(3-(but-3-yn-1-yl)-3H-diazirin-3-yl)propanoate) Bafilomycin] as the molecule, how does the IC50 read?
Answer: 28.3 nM

Question: Which IC50 does the source give for `C#CCCC(=O)O[C@@H]1C[C@](O)([C@@H](C)[C@H](O)[C@H](C)[C@H]2OC(=O)/C(OC)=C/C(C)=C/[C@@H](C)[C@@H](O)[C@@H](C)C/C(C)=C/C=C/[C@@H]2OC)O[C@H](C(C)C)[C@H]1C` [21 Alkyne Bafilomycin Probe, 21-pent-4-ynoate Bafilomycin] here?
Answer: 29.1 nM

Question: With `C/C=C/[C@H]1O[C@@H]([C@@H](C)[C@H](O)[C@H](C)[C@H]2OC(=O)/C(OC)=C/C(C)=C/[C@@H](C)[C@@H](O)[C@@H](CC)[C@@H](O)[C@H](C)C/C(C)=C/C=C/[C@@H]2OC)C[C@@H](O[C@@H]2C[C@H](O)[C@@H](O)[C@H](C)O2)[C@@H]1C` [21-Deoxy CMC, 21-deoxy CMC] as the molecule, how does the IC50 read?
Answer: 7.04 nM

Question: For `CCCCC(=O)O[C@@H]1C[C@](O)([C@@H](C)[C@H](O)[C@H](C)[C@H]2OC(=O)/C(OC)=C/C(C)=C/[C@@H](C)[C@@H](O)[C@@H](C)C/C(C)=C/C=C/[C@@H]2OC)O[C@H](C(C)C)[C@H]1C` [21-Pentanoate Baf A1, 21-pentanone Bafilomycin], which IC50 is on record?
Answer: 62.3 nM

Question: Which IC50 does the source give for `C#CCCC(=O)O[C@@H]1C[C@H]([C@@H](C)[C@H](O)[C@H](C)[C@H]2OC(=O)/C(OC)=C/C(C)=C/[C@@H](C)[C@@H](O)[C@@H](C)C/C(C)=C/C=C/[C@@H]2OC)OC(C(C)C)[C@H]1C` (some centres unmarked) [19-Deoxy-21(4-Pentynoate) Baf A1, 19-deoxy-21-pent-4-ynoate Bafilomycin] here?
Answer: 76.4 nM

Question: For `C#CCCC1(CCC(=O)O[C@H]2C[C@@H](O[C@@H]3C[C@](O)([C@@H](C)[C@H](O)[C@H](C)[C@H]4OC(=O)/C(OC)=C/C(C)=C/[C@@H](C)[C@@H](O)[C@@H](C)[C@@H](O)[C@H](C)C/C(C)=C/C=C/[C@@H]4OC)O[C@H](/C=C/C)[C@H]3C)O[C@@H](C)[C@@H]2OC(N)=O)N=N1` [23-Dual Linear Probe CMB, 3′-(3-(3-(but-3-yn-1-yl)-3H-diazirin-3-yl)propanoate) Concanamycin B], which IC50 is on record?
Answer: 23.2 nM

Question: How did the IC50 turn out when `C#CCCC(=O)O[C@H]1C[C@@H](O[C@@H]2C[C@](O)([C@@H](C)[C@H](O)[C@H](C)[C@H]3OC(=O)/C(OC)=C/C(C)=C/[C@@H](C)[C@@H](O)[C@@H](C)[C@@H](O)[C@H](C)C/C(C)=C/C=C/[C@@H]3OC)O[C@H](/C=C/C)[C@H]2C)O[C@@H](C)[C@@H]1OC(N)=O` [23-Alkyne CMB, 3′-pent-4-ynoate Concanamycins A-C] was run?
Answer: 5.75 nM

Question: How did the IC50 turn out when `C#CCCC1(CCC(=O)O[C@H]2C[C@@H](O[C@@H]3C[C@](O)([C@@H](C)[C@H](O)[C@H](C)[C@H]4OC(=O)/C(OC)=C/C(C)=C/[C@@H](C)[C@@H](O)[C@@H](CC)[C@@H](O)[C@H](C)C/C(C)=C/C=C/[C@@H]4OC)O[C@H](/C=C/C)[C@H]3C)O[C@@H](C)[C@@H]2O)N=N1` [Dual Linear Probe CMA, 3′-(3-(3-(but-3-yn-1-yl)-3H-diazirin-3-yl)propanoate) Concanamycin A] was run?
Answer: 4.87 nM

Question: `C=C/C=C/C(=O)O[C@@H]1C[C@](O)([C@@H](C)[C@H](O)[C@H](C)[C@H]2OC(=O)/C(OC)=C/C(C)=C/[C@@H](C)[C@@H](O)[C@@H](C)C/C(C)=C/C=C/[C@@H]2OC)O[C@H](C(C)C)[C@H]1C` [21-penta-2,4-dienoate Baf A1, 21-penta-2,4-dienoate Bafilomycin] was tested. Which IC50 did it give?
Answer: 25.1 nM

Question: Which IC50 does the source give for `CCCCCCCCC(=O)O[C@@H]1C[C@](O)([C@@H](C)[C@H](O)[C@H](C)[C@H]2OC(=O)/C(OC)=C/C(C)=C/[C@@H](C)[C@@H](O)[C@@H](C)C/C(C)=C/C=C/[C@@H]2OC)O[C@H](C(C)C)[C@H]1C` [21-Nonanoate Baf A1, 21-nonanoate Bafilomycin] here?
Answer: 146 nM

Question: How did the IC50 turn out when `C#CCCC1(CCC(=O)O[C@H]2C[C@@H](O[C@@H]3C[C@](O)([C@@H](C)[C@H](O)[C@H](C)[C@H]4OC(=O)/C(OC)=C/C(C)=C/[C@@H](C)[C@@H](O)[C@@H](CC)[C@@H](O)[C@H](C)C/C(C)=C/C=C/[C@@H]4OC)O[C@H](/C=C/C)[C@H]3C)O[C@@H](C)[C@@H]2OC(N)=O)N=N1` [23-Dual Linear Probe CMC, 3′-(3-(3-(but-3-yn-1-yl)-3H-diazirin-3-yl)propanoate) Concanamycin C] was run?
Answer: 4.7 nM

Question: `CO/C1=C\C(C)=C\[C@@H](C)[C@@H](O)[C@@H](C)C/C(C)=C/C=C/[C@H](OC)[C@@H]([C@@H](C)[C@@H](O)[C@H](C)[C@H]2C[C@@H](O)[C@H](C)[C@@H](C(C)C)O2)OC1=O` [19-Deoxy Baf A1, 19-deoxy Bafilomycin] was tested. Which IC50 did it give?
Answer: 111 nM

Question: With `CO/C1=C\C(C)=C\[C@@H](C)[C@@H](O)[C@@H](C)C/C(C)=C/C=C/[C@H](OC)[C@@H]([C@@H](C)[C@@H](O)[C@H](C)[C@@]2(OC)C[C@@H](O)[C@H](C)[C@@H](C(C)C)O2)OC1=O` [BafA2, Bafilomycin A2] as the molecule, how does the IC50 read?
Answer: 25.3 nM

Same assay, conditions: Homo sapiens, PBMC, 24 h; read-out: Lyso IC50

Question: Which IC50 does the source give for `C/C=C/[C@H]1O[C@@](O)([C@@H](C)[C@H](O)[C@H](C)[C@H]2OC(=O)/C(OC)=C/C(C)=C/[C@@H](C)[C@@H](O)[C@@H](CC)[C@@H](O)[C@H](C)C/C(C)=C/C=C/[C@@H]2OC)C[C@@H](O)[C@@H]1C` [CMF, Concanamycin F] here?
Answer: 6.27 nM

Question: `CO/C1=C\C(C)=C\[C@@H](C)C(=O)[C@@H](C)C/C(C)=C/C=C/[C@H](OC)[C@@H]([C@@H](C)[C@@H](O)[C@H](C)[C@@]2(O)CC(=O)[C@H](C)[C@@H](C(C)C)O2)OC1=O` [7,21-Dione Baf A1, 7,21-dione Bafilomycin] was tested. Which IC50 did it give?
Answer: ≥ 1000 nM

Question: Which IC50 does the source give for `CO/C1=C\C(C)=C\[C@@H](C)[C@@H](O)[C@@H](C)C/C(C)=C/C=C/[C@H](OC)[C@@H]([C@@H](C)[C@@H](O)[C@H](C)[C@@]2(O)C[C@@H](OC(C)=O)[C@H](C)[C@@H](C(C)C)O2)OC1=O` [21-Acetyl Baf, 21-Acetyl Bafilomycin] here?
Answer: 22.7 nM

Question: Which IC50 does the source give for `CO/C1=C\C(C)=C\[C@@H](C)C(=O)[C@@H](C)C/C(C)=C/C=C/[C@H](OC)[C@@H]([C@@H](C)[C@@H](O)[C@H](C)[C@@]2(O)C[C@@H](O)[C@H](C)[C@@H](C(C)C)O2)OC1=O` [7-One Baf A1, 7-one Bafilomycin] here?
Answer: ≥ 1000 nM
